Experimental data as given in PubChem BioAssay (NCI).
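48-hour exposure; five concentrations; linearly interpolated endpoints. GI50: concentration for 50% inhibition of growth. TGI: total growth inhibition.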

Tests used:
Experiment in all cases: DTP human tumour cell line panel, 48 h
786-0 renal = tested on: 786-0 renal
A549 NSCLC = tested on: A549 NSCLC
ACHN renal = tested on: ACHN renal
BT-549 breast = tested on: BT-549 breast
CAKI-1 renal = tested on: CAKI-1 renal
CCRF-CEM leukemia = tested on: CCRF-CEM leukemia
COLO 205 colon = tested on: COLO 205 colon
DU-145 prostate = tested on: DU-145 prostate
EKVX NSCLC = tested on: EKVX NSCLC
HCC-2998 colon = tested on: HCC-2998 colon
HCT-116 colon = tested on: HCT-116 colon
HCT-15 colon = tested on: HCT-15 colon
HL-60(TB) leukemia = tested on: HL-60(TB) leukemia
HOP-62 NSCLC = tested on: HOP-62 NSCLC
HOP-92 NSCLC = tested on: HOP-92 NSCLC
HS 578T breast = tested on: HS 578T breast
HT29 colon = tested on: HT29 colon
IGROV1 ovarian = tested on: IGROV1 ovarian
K-562 leukemia = tested on: K-562 leukemia
KM12 colon = tested on: KM12 colon
LOX IMVI melanoma = tested on: LOX IMVI melanoma
M14 melanoma = tested on: M14 melanoma
MALME-3M melanoma = tested on: MALME-3M melanoma
MDA-MB-231 breast = tested on: MDA-MB-231 breast
MDA-MB-435 = tested on: MDA-MB-435
MOLT-4 leukemia = tested on: MOLT-4 leukemia
NCI-H226 lung = tested on: NCI-H226 lung
NCI-H23 lung = tested on: NCI-H23 lung
NCI-H460 lung = tested on: NCI-H460 lung
NCI-H522 lung = tested on: NCI-H522 lung
NCI/ADR-RES ovarian = tested on: NCI/ADR-RES ovarian
OVCAR-3 ovarian = tested on: OVCAR-3 ovarian
OVCAR-4 ovarian = tested on: OVCAR-4 ovarian
OVCAR-5 ovarian = tested on: OVCAR-5 ovarian
OVCAR-8 ovarian = tested on: OVCAR-8 ovarian
PC-3 prostate = tested on: PC-3 prostate
RPMI-8226 leukemia = tested on: RPMI-8226 leukemia
RXF 393 renal = tested on: RXF 393 renal
SF-268 CNS = tested on: SF-268 CNS
SF-295 CNS = tested on: SF-295 CNS
SF-539 CNS = tested on: SF-539 CNS
SK-MEL-2 melanoma = tested on: SK-MEL-2 melanoma
SK-MEL-28 melanoma = tested on: SK-MEL-28 melanoma
SK-MEL-5 melanoma = tested on: SK-MEL-5 melanoma
SK-OV-3 ovarian = tested on: SK-OV-3 ovarian
SN12C renal = tested on: SN12C renal
SNB-19 CNS = tested on: SNB-19 CNS
SNB-75 CNS = tested on: SNB-75 CNS
SR leukemia = tested on: SR leukemia
SW-620 colon = tested on: SW-620 colon
T-47D breast = tested on: T-47D breast
TK-10 renal = tested on: TK-10 renal
U251 CNS = tested on: U251 CNS
UACC-257 melanoma = tested on: UACC-257 melanoma
UACC-62 melanoma = tested on: UACC-62 melanoma
UO-31 renal = tested on: UO-31 renal

SMILES: S=C(Nc1ccc(Cl)cc1)Nc1ccc(-c2nc3ccccc3s2)cc1
- GI50 (786-0 renal): 16.3 µM
- TGI (786-0 renal): 30.2 µM
- GI50 (A549 NSCLC): 14.9 µM
- TGI (A549 NSCLC): 32.2 µM
- GI50 (ACHN renal): 15.4 µM
- TGI (ACHN renal): 45.4 µM
- GI50 (BT-549 breast): 26.3 µM
- TGI (BT-549 breast): 61.5 µM
- GI50 (CAKI-1 renal): 10.8 µM
- TGI (CAKI-1 renal): 28 µM
- GI50 (CCRF-CEM leukemia): 15.6 µM
- TGI (CCRF-CEM leukemia): 54.8 µM
- GI50 (COLO 205 colon): 18.7 µM
- TGI (COLO 205 colon): 53.7 µM
- GI50 (DU-145 prostate): 13.6 µM
- TGI (DU-145 prostate): 30 µM
- GI50 (EKVX NSCLC): 15.1 µM
- TGI (EKVX NSCLC): 42.9 µM
- GI50 (HCC-2998 colon): 14.7 µM
- TGI (HCC-2998 colon): 27.8 µM
- GI50 (HCT-116 colon): 13.5 µM
- TGI (HCT-116 colon): 26.3 µM
- GI50 (HCT-15 colon): 23.5 µM
- TGI (HCT-15 colon): > 100 µM
- GI50 (HL-60(TB) leukemia): 8.22 µM
- TGI (HL-60(TB) leukemia): > 100 µM
- GI50 (HOP-62 NSCLC): 20.1 µM
- TGI (HOP-62 NSCLC): 41 µM
- GI50 (HOP-92 NSCLC): 17.2 µM
- TGI (HOP-92 NSCLC): 45.5 µM
- GI50 (HS 578T breast): 16.4 µM
- TGI (HS 578T breast): 39.2 µM
- GI50 (HT29 colon): 17.2 µM
- TGI (HT29 colon): 39.2 µM
- GI50 (IGROV1 ovarian): 16.8 µM
- TGI (IGROV1 ovarian): 37.9 µM
- GI50 (K-562 leukemia): 7.28 µM
- TGI (K-562 leukemia): 47.2 µM
- GI50 (KM12 colon): 15 µM
- TGI (KM12 colon): 49.1 µM
- GI50 (LOX IMVI melanoma): 24.3 µM
- TGI (LOX IMVI melanoma): > 100 µM
- GI50 (M14 melanoma): 14.3 µM
- TGI (M14 melanoma): 28 µM
- GI50 (MALME-3M melanoma): 15.6 µM
- TGI (MALME-3M melanoma): 46.4 µM
- GI50 (MDA-MB-231 breast): 15.3 µM
- TGI (MDA-MB-231 breast): 34.3 µM
- GI50 (MDA-MB-435): 13.4 µM
- TGI (MDA-MB-435): 29.8 µM
- TGI (MOLT-4 leukemia): > 100 µM
- GI50 (NCI-H226 lung): 17.9 µM
- TGI (NCI-H226 lung): 47.4 µM
- GI50 (NCI-H23 lung): 14.1 µM
- TGI (NCI-H23 lung): 27.3 µM
- GI50 (NCI-H460 lung): 13.9 µM
- TGI (NCI-H460 lung): 33.4 µM
- GI50 (NCI-H522 lung): 5.61 µM
- TGI (NCI-H522 lung): 19.6 µM
- GI50 (NCI/ADR-RES ovarian): 17.5 µM
- TGI (NCI/ADR-RES ovarian): 36.6 µM
- GI50 (OVCAR-3 ovarian): 9.93 µM
- TGI (OVCAR-3 ovarian): 34.1 µM
- GI50 (OVCAR-4 ovarian): 14.4 µM
- TGI (OVCAR-4 ovarian): 69.4 µM
- GI50 (OVCAR-5 ovarian): 20.8 µM
- TGI (OVCAR-5 ovarian): 44 µM
- GI50 (OVCAR-8 ovarian): 17.9 µM
- TGI (OVCAR-8 ovarian): 41.7 µM
- GI50 (PC-3 prostate): 14.3 µM
- TGI (PC-3 prostate): 54.9 µM
- GI50 (RPMI-8226 leukemia): 20.9 µM
- TGI (RPMI-8226 leukemia): 64.5 µM
- GI50 (RXF 393 renal): 16.6 µM
- TGI (RXF 393 renal): 37.1 µM
- GI50 (SF-268 CNS): 13.8 µM
- TGI (SF-268 CNS): 32 µM
- GI50 (SF-295 CNS): 16.1 µM
- TGI (SF-295 CNS): 40.6 µM
- GI50 (SF-539 CNS): 17.5 µM
- TGI (SF-539 CNS): 34 µM
- GI50 (SK-MEL-2 melanoma): 21 µM
- TGI (SK-MEL-2 melanoma): 40.2 µM
- GI50 (SK-MEL-28 melanoma): 19.1 µM
- TGI (SK-MEL-28 melanoma): 44.2 µM
- GI50 (SK-MEL-5 melanoma): 11 µM
- TGI (SK-MEL-5 melanoma): 22.9 µM
- GI50 (SK-OV-3 ovarian): 24.9 µM
- TGI (SK-OV-3 ovarian): 63.1 µM
- GI50 (SN12C renal): 15.4 µM
- TGI (SN12C renal): 35 µM
- GI50 (SNB-19 CNS): 19 µM
- TGI (SNB-19 CNS): 69.6 µM
- GI50 (SNB-75 CNS): 13.8 µM
- TGI (SNB-75 CNS): 35.5 µM
- GI50 (SR leukemia): 4.47 µM
- TGI (SR leukemia): 27.4 µM
- GI50 (SW-620 colon): 17.9 µM
- TGI (SW-620 colon): 35.4 µM
- GI50 (T-47D breast): 5.19 µM
- TGI (T-47D breast): 38.9 µM
- GI50 (TK-10 renal): 15.1 µM
- TGI (TK-10 renal): 44.5 µM
- GI50 (U251 CNS): 19 µM
- TGI (U251 CNS): > 100 µM
- GI50 (UACC-257 melanoma): 20.3 µM
- TGI (UACC-257 melanoma): 44.9 µM
- GI50 (UACC-62 melanoma): 10.4 µM
- TGI (UACC-62 melanoma): 24.8 µM
- GI50 (UO-31 renal): 11.8 µM
- TGI (UO-31 renal): 25.2 µM
